Data as given in ChEMBL document CHEMBL3526058, “Investigating the enteroenteric recirculation of apixaban, a factor Xa inhibitor: administration of activated charcoal to bile duct-cannulated rats and dogs receiving an intravenous dose and use of drug transporter knockout rats” (Drug Metab Dispos, 2013).

Experiments:
Rattus norvegicus [1] = experiment: Metabolism and biliary clearance in wild-type 30 mins activated charcoal pre-treated bile duct-cannulated Sprague-Dawley rat at 2 mg/kg, iv followed by activated charcoal administration 5 to 180 mins post compound dosing relative to total clearance; assay type: ADME, organism-based; set-up: dose 2 mg/kg, route intravenous; conditions: in vivo
[2] = Clearance in P-gp-knockout Sprague-Dawley rat at 2 mg/kg, iv; assay type: ADME, organism-based; set-up: dose 2 mg/kg, route intravenous; conditions: in vivo
Rattus norvegicus [3] = experiment: Renal clearance in wild-type bile duct-cannulated Sprague-Dawley rat at 2 mg/kg, iv relative to total clearance; assay type: ADME, organism-based, Kidney; set-up: dose 2 mg/kg, route intravenous; conditions: in vivo
[4] = Volume of distribution at steady state in wild-type bile duct-cannulated Sprague-Dawley rat at 2 mg/kg, iv administered 0.125 hr post GF-120918 treatment; assay type: ADME, organism-based; set-up: dose 2 mg/kg, route intravenous; conditions: in vivo, with GF-120918, read-out: Vdss
[5] = Mean residence time in wild-type bile duct-cannulated Sprague-Dawley rat at 2 mg/kg, iv administered 0.125 hr post GF-120918 treatment; assay type: ADME, organism-based; set-up: dose 2 mg/kg, route intravenous; conditions: in vivo, with GF-120918
Rattus norvegicus [6] = experiment: Intestinal clearance in wild-type bile duct-cannulated Sprague-Dawley rat at 2 mg/kg, iv administered 0.125 hr post GF-120918 treatment; assay type: ADME, organism-based; set-up: dose 2 mg/kg, route intravenous; conditions: in vivo
Rattus norvegicus [7] = experiment: Renal clearance in wild-type bile duct-cannulated Sprague-Dawley rat at 2 mg/kg, iv administered 0.125 hr post GF-120918 treatment relative to total clearance; assay type: ADME, organism-based, Kidney; set-up: dose 2 mg/kg, route intravenous; conditions: in vivo
[8] = Renal clearance in P-gp-knockout Sprague-Dawley rat at 2 mg/kg, iv; assay type: ADME, organism-based, Kidney; set-up: dose 2 mg/kg, route intravenous; conditions: in vivo
[9] = Half life in wild-type 30 mins activated charcoal pre-treated bile duct-cannulated Sprague-Dawley rat at 2 mg/kg, iv followed by activated charcoal administration 5 to 180 mins post compound dosing; assay type: ADME, organism-based; set-up: dose 2 mg/kg, route intravenous; conditions: in vivo
[10] = Mean residence time in wild-type 30 mins activated charcoal pre-treated bile duct-cannulated Sprague-Dawley rat at 2 mg/kg, iv followed by activated charcoal administration 5 to 180 mins post compound dosing; assay type: ADME, organism-based; set-up: dose 2 mg/kg, route intravenous; conditions: in vivo
[11] = Renal clearance in wild-type 30 mins activated charcoal pre-treated bile duct-cannulated Sprague-Dawley rat at 2 mg/kg, iv followed by activated charcoal administration 5 to 180 mins post compound dosing; assay type: ADME, organism-based, Kidney; set-up: dose 2 mg/kg, route intravenous; conditions: in vivo
Rattus norvegicus [12] = experiment: Metabolism and biliary clearance in wild-type 30 mins activated charcoal pre-treated bile duct-cannulated Sprague-Dawley rat at 2 mg/kg, iv followed by activated charcoal administration 5 to 180 mins post compound dosing; assay type: ADME, organism-based; set-up: dose 2 mg/kg, route intravenous; conditions: in vivo
[13] = Half life in bile duct-cannulated beagle dog at 1 mg/kg, iv administered as 5 mins infusion; assay type: ADME, organism-based, Canis lupus familiaris; set-up: dose 1 mg/kg, route intravenous; conditions: in vivo
[14] = Volume of distribution at steady state in bile duct-cannulated beagle dog at 1 mg/kg, iv administered as 5 mins infusion; assay type: ADME, organism-based, Canis lupus familiaris; set-up: dose 1 mg/kg, route intravenous; conditions: in vivo, read-out: Vdss
[15] = Mean residence time in bile duct-cannulated beagle dog at 1 mg/kg, iv administered as 5 mins infusion; assay type: ADME, organism-based, Canis lupus familiaris; set-up: dose 1 mg/kg, route intravenous; conditions: in vivo
Canis familiaris [16] = experiment: AUC (0 to infinity) in bile duct-cannulated beagle dog at 1 mg/kg, iv administered as 5 mins infusion followed by activated charcoal administration 10 to 420 mins post compound dosing; assay type: ADME, organism-based, Canis lupus familiaris; set-up: time infinity, dose 1 mg/kg, route intravenous; conditions: in vivo
Canis familiaris [17] = experiment: Clearance in bile duct-cannulated beagle dog at 1 mg/kg, iv administered as 5 mins infusion followed by activated charcoal administration 10 to 420 mins post compound dosing; assay type: ADME, organism-based, Canis lupus familiaris; set-up: dose 1 mg/kg, route intravenous; conditions: in vivo
Canis familiaris [18] = experiment: Intestinal clearance in bile duct-cannulated beagle dog at 1 mg/kg, iv administered as 5 mins infusion; assay type: ADME, organism-based, Canis lupus familiaris; set-up: dose 1 mg/kg, route intravenous; conditions: in vivo
Canis familiaris [19] = experiment: Metabolism and biliary clearance in bile duct-cannulated beagle dog at 1 mg/kg, iv administered as 5 mins infusion; assay type: ADME, organism-based, Canis lupus familiaris; set-up: dose 1 mg/kg, route intravenous; conditions: in vivo
[20] = Renal clearance in bile duct-cannulated beagle dog at 1 mg/kg, iv administered as 5 mins infusion followed by activated charcoal administration 10 to 420 mins post compound dosing; assay type: ADME, organism-based, Canis lupus familiaris, Kidney; set-up: dose 1 mg/kg, route intravenous; conditions: in vivo
Canis familiaris [21] = experiment: Intestinal clearance in bile duct-cannulated beagle dog at 1 mg/kg, iv administered as 5 mins infusion followed by activated charcoal administration 10 to 420 mins post compound dosing; assay type: ADME, organism-based, Canis lupus familiaris; set-up: dose 1 mg/kg, route intravenous; conditions: in vivo
Canis familiaris [22] = experiment: Metabolism and biliary clearance in bile duct-cannulated beagle dog at 1 mg/kg, iv administered as 5 mins infusion followed by activated charcoal administration 10 to 420 mins post compound dosing; assay type: ADME, organism-based, Canis lupus familiaris; set-up: dose 1 mg/kg, route intravenous; conditions: in vivo
Canis familiaris [23] = experiment: Intestinal clearance in bile duct-cannulated beagle dog at 1 mg/kg, iv administered as 5 mins infusion followed by activated charcoal administration 10 to 420 mins post compound dosing relative to total clearance; assay type: ADME, organism-based, Canis lupus familiaris; set-up: dose 1 mg/kg, route intravenous; conditions: in vivo
[24] = Drug recovery in urine of bile duct-cannulated beagle dog at 1 mg/kg, iv administered as 5 mins infusion measured up to 72 hrs; assay type: ADME, organism-based, Canis lupus familiaris; set-up: dose 1 mg/kg, route intravenous; conditions: read-out: Drug recovery
[25] = Drug recovery in bile of bile duct-cannulated beagle dog at 1 mg/kg, iv administered as 5 mins infusion measured up to 72 hrs; assay type: ADME, organism-based, Canis lupus familiaris; set-up: dose 1 mg/kg, route intravenous; conditions: read-out: Drug recovery
[26] = Drug recovery in feces of bile duct-cannulated beagle dog at 1 mg/kg, iv administered as 5 mins infusion measured up to 72 hrs; assay type: ADME, organism-based, Canis lupus familiaris; set-up: dose 1 mg/kg, route intravenous; conditions: read-out: Drug recovery
[27] = Drug recovery in urine of Sprague-Dawley rat at 2 mg/kg, iv measured up to 168 hrs; assay type: ADME, organism-based; set-up: dose 2 mg/kg, route intravenous; conditions: read-out: Drug recovery
[28] = Cmax in BCRP-knockout Sprague-Dawley rat at 2 mg/kg, iv; assay type: ADME, organism-based; set-up: dose 2 mg/kg, route intravenous; conditions: in vivo
[29] = Clearance in BCRP-knockout Sprague-Dawley rat at 2 mg/kg, iv; assay type: ADME, organism-based; set-up: dose 2 mg/kg, route intravenous; conditions: in vivo
[30] = Volume of distribution at steady state in BCRP-knockout Sprague-Dawley rat at 2 mg/kg, iv; assay type: ADME, organism-based; set-up: dose 2 mg/kg, route intravenous; conditions: in vivo, read-out: Vdss
[31] = Mean residence time in BCRP-knockout Sprague-Dawley rat at 2 mg/kg, iv; assay type: ADME, organism-based; set-up: dose 2 mg/kg, route intravenous; conditions: in vivo
[32] = Renal clearance in BCRP-knockout Sprague-Dawley rat at 2 mg/kg, iv; assay type: ADME, organism-based, Kidney; set-up: dose 2 mg/kg, route intravenous; conditions: in vivo
Rattus norvegicus [33] = experiment: Renal clearance in BCRP-knockout Sprague-Dawley rat at 2 mg/kg, iv relative to total clearance; assay type: ADME, organism-based, Kidney; set-up: dose 2 mg/kg, route intravenous; conditions: in vivo
[34] = Plasma protein binding in Sprague-Dawley rat; assay type: ADME, cell-free; conditions: read-out: PPB (converted)
[35] = Drug recovery in bile of bile duct-cannulated Sprague-Dawley rat at 2 mg/kg, iv administered 1 hr post GF-120918 treatment measured up to 48 hrs; assay type: ADME, organism-based; set-up: dose 2 mg/kg, route intravenous; conditions: with GF-120918, given 1 hr before the compound, read-out: Drug recovery
[36] = Drug recovery in bile of 30 mins activated charcoal pre-treated bile duct-cannulated Sprague-Dawley rat at 2 mg/kg, iv followed by activated charcoal administration 5 to 180 mins post compound dosing measured up to 48 hrs; assay type: ADME, organism-based; set-up: dose 2 mg/kg, route intravenous; conditions: read-out: Drug recovery
[37] = Drug recovery in feces of bile duct-cannulated P-gp-knockout Sprague-Dawley rat at 2 mg/kg, iv measured up to 24 hrs; assay type: ADME, organism-based; set-up: dose 2 mg/kg, route intravenous; conditions: read-out: Drug recovery
[38] = Drug recovery in feces of Sprague-Dawley rat at 30 mg/kg, po measured up to 168 hrs; assay type: ADME, organism-based; set-up: dose 30 mg/kg, route oral; conditions: read-out: Drug recovery
[39] = Drug recovery in feces of bile duct-cannulated Sprague-Dawley rat at 30 mg/kg, po measured up to 48 hrs; assay type: ADME, organism-based; set-up: dose 30 mg/kg, route oral; conditions: read-out: Drug recovery
[40] = AUC (0 to infinity) in wild-type bile duct-cannulated Sprague-Dawley rat at 2 mg/kg, iv; assay type: ADME, organism-based; set-up: time infinity, dose 2 mg/kg, route intravenous; conditions: in vivo
[41] = Clearance in wild-type bile duct-cannulated Sprague-Dawley rat at 2 mg/kg, iv; assay type: ADME, organism-based; set-up: dose 2 mg/kg, route intravenous; conditions: in vivo
[42] = Volume of distribution at steady state in wild-type bile duct-cannulated Sprague-Dawley rat at 2 mg/kg, iv; assay type: ADME, organism-based; set-up: dose 2 mg/kg, route intravenous; conditions: in vivo, read-out: Vdss
Rattus norvegicus [43] = experiment: Metabolism and biliary clearance in wild-type bile duct-cannulated Sprague-Dawley rat at 2 mg/kg, iv; assay type: ADME, organism-based; set-up: dose 2 mg/kg, route intravenous; conditions: in vivo

`COc1ccc(-n2nc(C(N)=O)c3c2[14C](=O)N(c2ccc(N4CCCCC4=O)cc2)CC3)cc1` showed a CL (Rattus norvegicus [1]) of 33%, a clearance [2] of 13.3 mL/min/kg and a CL (Rattus norvegicus [3]) of 51%. For the same molecule, the Vd [4] was 1.6 L/kg, the MRT [5] was 1.7 h and the CL (Rattus norvegicus [6]) was 0.1 L/h/kg. For the same molecule, the CL (Rattus norvegicus [7]) was 50%, the CL renal [8] was 6.5 mL/min/kg and the half-life [9] was 48 min. For the same molecule, the MRT [10] was 36 min, the CL renal [11] was 13 mL/min/kg and the CL (Rattus norvegicus [12]) was 0.67 L/h/kg. The half-life [13] was 174 min, the Vd [14] was 0.2 L/kg and the MRT [15] was 2.6 h. For the same molecule, the AUC (Canis familiaris [16]) was 5.6 µg·h/mL, the CL (Canis familiaris [17]) was 50 mL/h/kg and the CL (Canis familiaris [18]) was 17.2 mL/h/kg. It also gave a CL (Canis familiaris [19]) of 17.3 mL/h/kg, a CL renal [20] of 0.122 mL/min/kg and a CL (Canis familiaris [21]) of 31.2 mL/h/kg. For the same molecule, the CL (Canis familiaris [22]) was 11.5 mL/h/kg, the CL (Canis familiaris [23]) was 62% and the dose excreted [24] was 13.5%. It also gave a dose excreted [25] of 12.4%, a dose excreted [26] of 42.7% and a dose excreted at 168 h [27] of 51.3%. The Cmax [28] was 2370 ng/mL, the clearance [29] was 15 mL/min/kg and the Vd [30] was 1.8 L/kg. For the same molecule, the MRT [31] was 1.4 h, the CL renal [32] was 5 mL/min/kg and the CL (Rattus norvegicus [33]) was 33%. It also gave a fraction unbound [34] of 0.04, a dose excreted [35] of 14.7% and a dose excreted [36] of 15.7%. The dose excreted at 24 h [37] was 24.9%, the dose excreted at 168 h [38] was 74% and the dose excreted at 48 h [39] was 69.8%. For the same molecule, the AUC(0-inf) [40] was 1410 ng·h/mL, the clearance [41] was 23.3 mL/min/kg and the Vd [42] was 0.9 L/kg. The CL (Rattus norvegicus [43]) was 0.39 L/h/kg.
